Laboratory results reported in patent publication US11000033B2, “Ketone or oxime compound, and herbicide” (NISSAN CHEMICAL CORPORATION, priority 2014, dated 2021).

Tests used:
Assay type in all cases: in vivo
Avena fatua [1] = experiment: Test Example 4: herbicidal effect by soil treatment (symbol I); settings: application herbicide amount 320 g/ha
Procedure, shortened: (§1)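 Seeds were sown in sterilized diluvial soil, covered with about 1.5 cm of soil, and the soil surface was sprayed with a water-diluted emulsion of the compound at a predetermined rate. Plants grew in a greenhouse at 25° C. to 30° C.; effects were scored visually 3 weeks after application.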

Scirpus juncoides [2] = experiment: Test Example 1: herbicidal activity, application before weed generation in submerged conditions (symbol B); settings: application herbicide amount 320 g/ha
Procedure, shortened: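 Weed control was rated three weeks after treatment on a 0–5 scale, from 5% or lower up to 90% or more. Pre-emergence water-surface application of diluted emulsion at a predetermined rate was made on the day of sowing, in flooded (4 cm water) pots containing rice seedlings, kept at 25–30 °C under glass.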

beet [3] = experiment: Test Example 5: effect on crop by foliage application, plastic box (symbol f); settings: 320 g/ha, 3 weeks after application
Procedure, shortened: (§2)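 In a plastic box 7 cm deep filled with sterilized diluvial soil, seeds of crops and weeds such as Digitaria ciliaris, Avena fatua and Amaranthus retroflexus are sown in spots and covered with about 1.5 cm of soil before greenhouse growth at 25–30° C.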

beet [4] = experiment: Test Example 4: effect on crop by soil treatment (symbol f); settings: application herbicide amount 320 g/ha
Procedure, shortened: (§3)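 Crop seed is sown in spots together with several weed species in a box of sterilized diluvial soil. It is covered by about 1.5 cm of soil and kept in a greenhouse held between 25° C. and 30° C.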

wheat = experiment: Test Example 4: effect on crop by soil treatment (symbol e); settings: application herbicide amount 320 g/ha
Procedure, shortened: as §3

soybean = experiment: Test Example 5: effect on crop by foliage application, plastic box (symbol d); settings: 320 g/ha, 3 weeks after application
Procedure, shortened: as §2

Avena fatua [5] = experiment: Test Example 5: herbicidal effect by foliage application, plastic box (symbol I); settings: 320 g/ha, 3 weeks after application
Procedure, shortened: (§4)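 Post-emergence spray; diluvial soil (sterilized), ~1.5 cm seed cover; greenhouse 25–30° C; 14-day-old plants; water-diluted emulsion at predetermined dose; visual score at 3 wk post-treatment.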

Setaria viridis = experiment: Test Example 5: herbicidal effect by foliage application, plastic box (symbol G); settings: 320 g/ha, 3 weeks after application
Procedure, shortened: as §4

Veronica persica = experiment: Test Example 5: herbicidal effect by foliage application, plastic box (symbol R); settings: 320 g/ha, 3 weeks after application
Procedure, shortened: as §4

[6] = test system: Echinochloa crus-galli var. crus-galli; experiment: Test Example 4: herbicidal effect by soil treatment (symbol H); settings: application herbicide amount 320 g/ha
Procedure, shortened: as §1

Scirpus juncoides [7] = experiment: Test Example 2: herbicidal activity, application during weed generation in submerged conditions (symbol B); settings: Table 23; application herbicide amount 320 g/ha; grade 0-5 by criteria of Test Example 1
Procedure, shortened: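 Submerged alluvial soil (4 cm) sown with mixed seed; greenhouse 25–30° C. 1–2 leaf: diluted emulsion onto water surface, preset dose. Visual score, 3 wk.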

Apera spica-venti [8] = experiment: Test Example 5: herbicidal effect by foliage application, plastic box (symbol L); settings: 320 g/ha, 3 weeks after application
Procedure, shortened: as §4

Galium spurium [9] = experiment: Test Example 5: herbicidal effect by foliage application, plastic box (symbol Q); settings: 320 g/ha, 3 weeks after application
Procedure, shortened: as §4

Galium spurium [10] = experiment: Test Example 4: herbicidal effect by soil treatment (symbol Q); settings: application herbicide amount 320 g/ha
Procedure, shortened: as §1

Apera spica-venti [11] = experiment: Test Example 4: herbicidal effect by soil treatment (symbol L); settings: application herbicide amount 320 g/ha
Procedure, shortened: as §1

Amaranthus retroflexus = experiment: Test Example 4: herbicidal effect by soil treatment (symbol N); settings: application herbicide amount 320 g/ha
Procedure, shortened: as §1

rapeseed = experiment: Test Example 4: effect on crop by soil treatment (symbol g); settings: application herbicide amount 320 g/ha
Procedure, shortened: as §3

Chenopodium album = experiment: Test Example 5: herbicidal effect by foliage application, plastic box (symbol O); settings: 320 g/ha, 3 weeks after application
Procedure, shortened: as §4

CON=C(C)CC1CC(O)=C(c2c(OC)cc(C)cc2OC)C1=O (stereo not drawn) [6-103]
Herbicidal effect grade, I: Avena fatua (Avena fatua [1]): 5 (Herbicidal ratio of 90% or more (almost completely withered))
Herbicidal effect grade, B: Scirpus juncoides (Scirpus juncoides [2]): 0 (Herbicidal ratio of 5% or lower (almost no effect))
f: beet, effect on crop (criteria of Test Example 1) (beet [3]): 0 (Herbicidal ratio of 5% or lower (almost no effect))
Effect on crop grade, f: beet (beet [4]): 0 (Herbicidal ratio of 5% or lower (almost no effect))
Effect on crop grade, e: wheat (wheat): 5 (Herbicidal ratio of 90% or more (almost completely withered))
d: soybean, effect on crop (criteria of Test Example 1) (soybean): 0 (Herbicidal ratio of 5% or lower (almost no effect))
I: Avena fatua, herbicidal effect (criteria of Test Example 1) (Avena fatua [5]): 5 (Herbicidal ratio of 90% or more (almost completely withered))
G: Setaria viridis, herbicidal effect (criteria of Test Example 1) (Setaria viridis): 5 (Herbicidal ratio of 90% or more (almost completely withered))
R: Veronica persica, herbicidal effect (criteria of Test Example 1) (Veronica persica): 2 (Herbicidal ratio of 20% or higher and lower than 40%)
Herbicidal effect grade, H: Echinochloa crus-galli var. crus-galli [6]: 5 (Herbicidal ratio of 90% or more (almost completely withered))
Herbicidal effect grade, B: Scirpus juncoides (Scirpus juncoides [7]): 0 (Herbicidal ratio of 5% or lower (almost no effect))
L: Apera spica-venti, herbicidal effect (criteria of Test Example 1) (Apera spica-venti [8]): 5 (Herbicidal ratio of 90% or more (almost completely withered))
Q: Galium spurium, herbicidal effect (criteria of Test Example 1) (Galium spurium [9]): 0 (Herbicidal ratio of 5% or lower (almost no effect))
Herbicidal effect grade, Q: Galium spurium (Galium spurium [10]): 0 (Herbicidal ratio of 5% or lower (almost no effect))
Herbicidal effect grade, L: Apera spica-venti (Apera spica-venti [11]): 5 (Herbicidal ratio of 90% or more (almost completely withered))
Herbicidal effect grade, N: Amaranthus retroflexus (Amaranthus retroflexus): 0 (Herbicidal ratio of 5% or lower (almost no effect))
Effect on crop grade, g: rapeseed (rapeseed): 0 (Herbicidal ratio of 5% or lower (almost no effect))
O: Chenopodium album, herbicidal effect (criteria of Test Example 1) (Chenopodium album): 0 (Herbicidal ratio of 5% or lower (almost no effect))

CON=C(C)CC1CC(O)=C(c2c(C)cc(-c3cc(F)c(F)c(F)c3)cc2C)C1=O (stereo not drawn) [6-104]
Herbicidal effect grade, I: Avena fatua (Avena fatua [1]): 4 (Herbicidal ratio of 70% or higher and lower than 90%)
Herbicidal effect grade, B: Scirpus juncoides (Scirpus juncoides [2]): 5 (Herbicidal ratio of 90% or more (almost completely withered))
f: beet, effect on crop (criteria of Test Example 1) (beet [3]): 4 (Herbicidal ratio of 70% or higher and lower than 90%)
Effect on crop grade, f: beet (beet [4]): 4 (Herbicidal ratio of 70% or higher and lower than 90%)
Effect on crop grade, e: wheat (wheat): 5 (Herbicidal ratio of 90% or more (almost completely withered))
d: soybean, effect on crop (criteria of Test Example 1) (soybean): 3 (Herbicidal ratio of 40% or higher and lower than 70%)
I: Avena fatua, herbicidal effect (criteria of Test Example 1) (Avena fatua [5]): 5 (Herbicidal ratio of 90% or more (almost completely withered))
G: Setaria viridis, herbicidal effect (criteria of Test Example 1) (Setaria viridis): 5 (Herbicidal ratio of 90% or more (almost completely withered))
R: Veronica persica, herbicidal effect (criteria of Test Example 1) (Veronica persica): 4 (Herbicidal ratio of 70% or higher and lower than 90%)
Herbicidal effect grade, H: Echinochloa crus-galli var. crus-galli [6]: 5 (Herbicidal ratio of 90% or more (almost completely withered))
Herbicidal effect grade, B: Scirpus juncoides (Scirpus juncoides [7]): 5 (Herbicidal ratio of 90% or more (almost completely withered))
L: Apera spica-venti, herbicidal effect (criteria of Test Example 1) (Apera spica-venti [8]): 5 (Herbicidal ratio of 90% or more (almost completely withered))
Q: Galium spurium, herbicidal effect (criteria of Test Example 1) (Galium spurium [9]): 4 (Herbicidal ratio of 70% or higher and lower than 90%)
Herbicidal effect grade, Q: Galium spurium (Galium spurium [10]): 4 (Herbicidal ratio of 70% or higher and lower than 90%)
Herbicidal effect grade, L: Apera spica-venti (Apera spica-venti [11]): 5 (Herbicidal ratio of 90% or more (almost completely withered))
Herbicidal effect grade, N: Amaranthus retroflexus (Amaranthus retroflexus): 5 (Herbicidal ratio of 90% or more (almost completely withered))
Effect on crop grade, g: rapeseed (rapeseed): 4 (Herbicidal ratio of 70% or higher and lower than 90%)
O: Chenopodium album, herbicidal effect (criteria of Test Example 1) (Chenopodium album): 4 (Herbicidal ratio of 70% or higher and lower than 90%)

CC(=O)CC1CC(O)=C(c2c(C)cc(Br)cc2C)C1=O (stereo not drawn) [7-002]
Herbicidal effect grade, I: Avena fatua (Avena fatua [1]): 0 (Herbicidal ratio of 5% or lower (almost no effect))
Herbicidal effect grade, B: Scirpus juncoides (Scirpus juncoides [2]): 0 (Herbicidal ratio of 5% or lower (almost no effect))
f: beet, effect on crop (criteria of Test Example 1) (beet [3]): 0 (Herbicidal ratio of 5% or lower (almost no effect))
Effect on crop grade, f: beet (beet [4]): 0 (Herbicidal ratio of 5% or lower (almost no effect))
Effect on crop grade, e: wheat (wheat): 0 (Herbicidal ratio of 5% or lower (almost no effect))
d: soybean, effect on crop (criteria of Test Example 1) (soybean): 0 (Herbicidal ratio of 5% or lower (almost no effect))
I: Avena fatua, herbicidal effect (criteria of Test Example 1) (Avena fatua [5]): 4 (Herbicidal ratio of 70% or higher and lower than 90%)
G: Setaria viridis, herbicidal effect (criteria of Test Example 1) (Setaria viridis): 3 (Herbicidal ratio of 40% or higher and lower than 70%)
R: Veronica persica, herbicidal effect (criteria of Test Example 1) (Veronica persica): 0 (Herbicidal ratio of 5% or lower (almost no effect))
Herbicidal effect grade, H: Echinochloa crus-galli var. crus-galli [6]: 5 (Herbicidal ratio of 90% or more (almost completely withered))
Herbicidal effect grade, B: Scirpus juncoides (Scirpus juncoides [7]): 0 (Herbicidal ratio of 5% or lower (almost no effect))
L: Apera spica-venti, herbicidal effect (criteria of Test Example 1) (Apera spica-venti [8]): 3 (Herbicidal ratio of 40% or higher and lower than 70%)
Q: Galium spurium, herbicidal effect (criteria of Test Example 1) (Galium spurium [9]): 0 (Herbicidal ratio of 5% or lower (almost no effect))
Herbicidal effect grade, Q: Galium spurium (Galium spurium [10]): 0 (Herbicidal ratio of 5% or lower (almost no effect))
Herbicidal effect grade, L: Apera spica-venti (Apera spica-venti [11]): 5 (Herbicidal ratio of 90% or more (almost completely withered))
Herbicidal effect grade, N: Amaranthus retroflexus (Amaranthus retroflexus): 0 (Herbicidal ratio of 5% or lower (almost no effect))
Effect on crop grade, g: rapeseed (rapeseed): 0 (Herbicidal ratio of 5% or lower (almost no effect))
O: Chenopodium album, herbicidal effect (criteria of Test Example 1) (Chenopodium album): 0 (Herbicidal ratio of 5% or lower (almost no effect))

CCc1cc(Br)cc(C)c1C1=C(O)CC(CC(C)=O)C1=O (stereo not drawn) [7-003]
Herbicidal effect grade, I: Avena fatua (Avena fatua [1]): 4 (Herbicidal ratio of 70% or higher and lower than 90%)
Herbicidal effect grade, B: Scirpus juncoides (Scirpus juncoides [2]): 0 (Herbicidal ratio of 5% or lower (almost no effect))
f: beet, effect on crop (criteria of Test Example 1) (beet [3]): 0 (Herbicidal ratio of 5% or lower (almost no effect))
Effect on crop grade, f: beet (beet [4]): 0 (Herbicidal ratio of 5% or lower (almost no effect))
Effect on crop grade, e: wheat (wheat): 0 (Herbicidal ratio of 5% or lower (almost no effect))
d: soybean, effect on crop (criteria of Test Example 1) (soybean): 2 (Herbicidal ratio of 20% or higher and lower than 40%)
I: Avena fatua, herbicidal effect (criteria of Test Example 1) (Avena fatua [5]): 5 (Herbicidal ratio of 90% or more (almost completely withered))
G: Setaria viridis, herbicidal effect (criteria of Test Example 1) (Setaria viridis): 5 (Herbicidal ratio of 90% or more (almost completely withered))
R: Veronica persica, herbicidal effect (criteria of Test Example 1) (Veronica persica): 0 (Herbicidal ratio of 5% or lower (almost no effect))
Herbicidal effect grade, H: Echinochloa crus-galli var. crus-galli [6]: 5 (Herbicidal ratio of 90% or more (almost completely withered))
Herbicidal effect grade, B: Scirpus juncoides (Scirpus juncoides [7]): 0 (Herbicidal ratio of 5% or lower (almost no effect))
L: Apera spica-venti, herbicidal effect (criteria of Test Example 1) (Apera spica-venti [8]): 5 (Herbicidal ratio of 90% or more (almost completely withered))
Q: Galium spurium, herbicidal effect (criteria of Test Example 1) (Galium spurium [9]): 0 (Herbicidal ratio of 5% or lower (almost no effect))
Herbicidal effect grade, Q: Galium spurium (Galium spurium [10]): 0 (Herbicidal ratio of 5% or lower (almost no effect))
Herbicidal effect grade, L: Apera spica-venti (Apera spica-venti [11]): 5 (Herbicidal ratio of 90% or more (almost completely withered))
Herbicidal effect grade, N: Amaranthus retroflexus (Amaranthus retroflexus): 0 (Herbicidal ratio of 5% or lower (almost no effect))
Effect on crop grade, g: rapeseed (rapeseed): 0 (Herbicidal ratio of 5% or lower (almost no effect))
O: Chenopodium album, herbicidal effect (criteria of Test Example 1) (Chenopodium album): 0 (Herbicidal ratio of 5% or lower (almost no effect))
